# Where “and” joins values, the source holds several entries; their conditions need not be identical. Identical values can stand only once.
# Experiments:
# [1] = test system: A. gambiae labellum sensilla (purine-sensitive cell); test: Tip recording of action potentials from A. gambiae labellum sensilla in response to agonists; type: cell-based, Anopheles gambiae
# Protocol: (§1) The tip recording method was used to record action potentials (spikes) from sensory cells in sensilla on A. gambiae labellum lobes.
# Sensilla were exposed to test compounds and PR antagonists for ca. 2-4 s and spikes were counted in the first 2 s of recordings. Up to 4 test compounds were tested on a sensillum to evaluate potential agonists, each presented at 200 pM. To study responses as a function of dose for agonists ATP, adenosine, AMP, AMP-CPP and ATP+adenosine, up to 7 recordings were made at increasing doses of agonist from the same sensillum. Unless otherwise stated, recordings were made throughout from 4 to 16 sensilla from individual 4-6-day-old females per dose of agonist, antagonist and metal ion modulator. For example, a response curve established over 6 doses of an antagonist using 8 sensilla per dose involved recording from a sensillum of 48 separate mosquitoes. A given dose of a PR antagonist or metal ion modulator was only presented once to a sensillum. Two-second recordings were imported as ASCII files into DataView software for analysis of spike amplitude. Differences in spike amplitude generated by stimulation of one 8v sensillum/female with 1 mM sucrose (n=294 spikes from 6 females) 200 pM adenosine (n=207 spikes from 7 females) and 200 pM ATP (n=192 spikes from 7 females) were compared by measuring the spike amplitude in mV between the highest point of depolarisation and the lowest point of hyperpolarisation.
# Spike counts elicited by 200 pM doses of nucleotides, nucleosides, purines, pyrimidines and water were log(x+1.25)-transformed (optimal constant numerically established using a maximum likelihood procedure) and analysed using a linear mixed effects model (function ‘lme’ in “nlme” R package) with mosquito number as random effect. To model inhomogeneous variance in residuals (near normal distribution, P=0.045, Shapiro-Wilk test, W=0.98604), the variance function ‘varldent’ in the “nlme” package that allows for different variance per treatment was used. Statistical differences were identified between treatments using post-hoc-Tukey test with contrasts adjusted by Holm's family wise error compensation (FWEC). Spike counts elicited by ATP, AMP, adenosine and their binary mixtures were analysed using a generalised linear model (LM) of log (x+10) transformed data and differences were identified using post-hoc-Tukey test with Holm's FWEC.
# Log transformed spike amplitudes generated in response to ATP, adenosine and sucrose were compared using linear mixed effects models using the ‘lme’ function of the “nlme” R package, with spike amplitude as the dependent variable, treatment as the fixed factor and mosquito number within treatment as random effect. Residuals were normally distributed (Shapiro-Wilk test P>0.0563) and their variances homogeneous (Bartlett test P>0.9799); P-values were corrected using Holm's FWEC.
# Dose-response models fitted to mosquito data were generated using the ‘drm’ command in the “drc” R package (version 2.5-12). Best fitting models (goodness of fit) and effects of dose of a compound were assessed using, respectively, ‘modelFit’ and ‘noEffect’ functions in the same R package. A 3-parameter logistic model (L3) was fitted to spike-counts recorded to increasing doses of adenosine, AMP, ATP and AMP-CPP. Spike numbers recorded in response to 200 pM ATP with increasing doses of PR antagonists added were analysed using a 4-parameter log-logistic model (LL.4) for A-317491 and spinorphin, using a 4-parameter Weibull model (W1.4) for PPADS, RB-2 and TMP, and using a 3-parameter log-logistic model (LL.3) for suramin. An L3 model was fitted to proportions of females feeding on increasing doses of ATP. Feeding rates on 20 μM ATP with increasing doses of a PR antagonist added were analysed using a 4-parameter log-logistic model (LL.4) with the median of the positive control (20 μM ATP) fixed as the upper asymptote. […]
# [2] = test system: A. gambiae labellum ATP-sensitive receptor; test: Effects of metal ions on electrophysiological responses to ATP; type: cell-based, Anopheles gambiae
# Protocol: as §1
# Sensilla were exposed to test compounds and PR antagonists for ca. 2-4 s and spikes were counted in the first 2 s of recordings. Up to 4 test compounds were tested on a sensillum to evaluate potential agonists, each presented at 200 pM. To study responses as a function of dose for agonists ATP, adenosine, AMP, AMP-CPP and ATP+adenosine, up to 7 recordings were made at increasing doses of agonist from the same sensillum. […]
# Pairwise comparisons of A. gambiae electrophysiological (EP) responses to ATP and adenosine alone and combined with a given dose of PR antagonist, EP responses to ATP alone and combined with a given dose of a metal modulator, and EP responses to ATP prior to and after exposure of a sensillum to a given dose of a PR antagonist were made with a one-tailed Wilcoxon signed-rank test for data showing a non-normal distribution, with a paired Student's t-test for normally distributed data showing homogeneous variance and with a Welch's t-test for normally distributed data showing non-homogeneous variance. […] Percent feeding inhibition induced by PR antagonists in A. stephensi was calculated using Abbott's formula.
# [3] = spike frequency as a function of dose
structure (smiles),measurement,setting,value
"Nc1ncnc2c1ncn2[C@@H]1O[C@H](COP(=O)(O)OP(=O)(O)OP(=O)(O)O)[C@@H](O)[C@H]1O [ATP, Adenosine 5′-triphosphate]",spike frequency,"[1]; 50 pM alone, mixture 50 pM of each agonist",2.5±0.7 /2s
same,EC50,"[1]; Anopheles gambiae, spike frequency as a function of dose, read-out: ED50 (the source's name)",~0.12 nM
same,spikes recorded at the asymptote,[1]; at 250 pM,approximately 30 spikes/2 s
same,Mean spike frequency per 2 s (±SEM),"[1]; each compound at 200 pM alone and in binary mixtures, T1 labellum sensilla",33.04 per 2 s
same,detection threshold,[1]; labellum sensory cell,< 100 pM
same,ED95,[1]; [3],~0.2 nM
same,dose at which the unsurmountable asymptote is reached,[1]; [3],250 pM
same,Mean no. of spikes per 2 s (±s.e.m.),[2]; 100 pM ATP alone,3 ± 1.67 spikes per 2 s
same,Mean no. of spikes per 2 s (±s.e.m.),[2]; 200 pM ATP alone,24.8 ± 4.84 spikes per 2 s and 28.12 ± 3.5 spikes per 2 s
